pIC50: −log10 of the molar value. Like-named read-outs stand apart in the source and are kept apart here.

The target of one data set is MAP2K2 (Homo sapiens, UniProt P36507). Description: Other kinase MSA: MAP2K2. Type of data set: biochemical. Particulars: 30 μM ATP, ERKtide substrate; pre-activation of ERK 30 min, detection after 60 minutes; read-out: IC50, Enzyme MAP2K2. As for the experimental part:
(§1) Kinase activity, unless otherwise indicated, was measured in vitro using an electrophoretic mobility shift assay (MSA). The phosphorylation of a peptide substrate by BTK and other kinases was measured. The kinase reactions were assembled in a total volume of 25 μL per well in 384 well plates. The following was added to each well: compound buffer (or control); enzyme buffer; and substrate buffer, as further described below. […]
(§2) Enzyme and compound/inhibitor were optionally pre-incubated. […] The kinase activity for the kinases in Table 3 were measured at 3 hours incubation time, except that in the case of MAP2K1 and MAP2K2 assay, pre-activation of ERK was done for 30 min with 6 μM of ATP, and then the detection of activated ERK in the presence of compounds was done after 60 minutes of incubation.
(§3) The terminated reactions were analyzed using a 12 channel LABCHIP® 3000 microfluidic detection instrument (available from Caliper Life Sciences, Waltham, Mass.). […] As substrate and product peptides were separated, two peaks of fluorescence were observed. Change in the relative fluorescence intensity of the substrate and product peaks was the parameter measured, reflecting enzyme activity. […] Capillary electrophoregrams (RDA acquisition files) were analyzed using HTS Well Analyzer software (available from Caliper Life Sciences, Waltham, Mass.). […]

In another data set the target is T1, TXK (Homo sapiens, UniProt P42681).
T1 sequence (P42681 1-527): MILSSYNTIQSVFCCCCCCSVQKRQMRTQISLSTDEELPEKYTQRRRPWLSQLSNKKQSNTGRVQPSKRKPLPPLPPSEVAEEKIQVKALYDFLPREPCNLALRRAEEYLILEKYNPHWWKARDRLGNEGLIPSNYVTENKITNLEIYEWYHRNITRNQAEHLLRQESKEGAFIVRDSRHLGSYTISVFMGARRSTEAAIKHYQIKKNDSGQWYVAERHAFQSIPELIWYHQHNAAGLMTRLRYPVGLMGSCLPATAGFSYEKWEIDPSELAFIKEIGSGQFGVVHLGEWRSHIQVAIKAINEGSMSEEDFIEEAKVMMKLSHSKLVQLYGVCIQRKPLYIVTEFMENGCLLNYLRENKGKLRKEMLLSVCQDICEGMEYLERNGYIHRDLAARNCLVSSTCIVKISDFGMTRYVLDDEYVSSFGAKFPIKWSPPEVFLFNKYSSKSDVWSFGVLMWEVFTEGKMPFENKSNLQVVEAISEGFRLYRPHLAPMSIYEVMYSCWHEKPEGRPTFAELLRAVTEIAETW
Description: Other kinase MSA: TXK. Type of data set: biochemical. The protocol:
as §1, §2, §3

Data set [1] has as its system recombinant human CYP1A2, 2B6, 2C8, 2C9, 2C19, 2D6, 3A4, and FMO3. The data set is described as follows: Human recombinant CYP and FMO3 phenotyping. The class given is in vitro ADME. Particulars: of CYPs tested (1A2, 2B6, 2C8, 2C9, 2D6, 3A4) and FMO3. As for the experimental part:
The involvement of CYPs and FMO3 in the metabolism of Compound 6 was evaluated using recombinant human CYP1A2, 2B6, 2C8, 2C9, 2C19, 2D6, 3A4, and FMO3 (CYPs and FMO3 from Corning Life Sciences). Incubations contained 0.5 μM of Compound 6, 100 pmol/mL of each CYP isoform, or 0.5 mg/mL of FMO3 isoform, and 1 mM NADPH cofactor in 50 mM potassium phosphate buffer at pH 7.4. All incubations were pre-warmed at 37° C. for 10 minutes, followed by addition of cofactor to initiate the reaction. Incubations were carried out for 60 minutes at 37° C. At each time point (0, 5, 10, 20, 30 and 60 minutes), an aliquot of sample in the incubation pleases was taken and dispersed into a quench plate containing 3-fold volume of acetonitrile and carbutamide as an internal standard. The samples were centrifuged, and the supernatant was analyzed using LC-MS/MS.
Quantitation of the substrate depletion in recombinant CYPs and FMO3 phenotyping, chemical inhibition in hepatocytes, and enzyme kinetics assays were analyzed by monitoring substrate depletion using LC-MS/MS.
The intrinsic clearance of Compound 6 in rCYP and hepatocytes was determined by integrating the parent peak on the chromatograms, and the extent of substrate depletion measured by comparing parent peak area loss over time. […]

Chain of MAP2K2 (P36507 whole entry, species assumed): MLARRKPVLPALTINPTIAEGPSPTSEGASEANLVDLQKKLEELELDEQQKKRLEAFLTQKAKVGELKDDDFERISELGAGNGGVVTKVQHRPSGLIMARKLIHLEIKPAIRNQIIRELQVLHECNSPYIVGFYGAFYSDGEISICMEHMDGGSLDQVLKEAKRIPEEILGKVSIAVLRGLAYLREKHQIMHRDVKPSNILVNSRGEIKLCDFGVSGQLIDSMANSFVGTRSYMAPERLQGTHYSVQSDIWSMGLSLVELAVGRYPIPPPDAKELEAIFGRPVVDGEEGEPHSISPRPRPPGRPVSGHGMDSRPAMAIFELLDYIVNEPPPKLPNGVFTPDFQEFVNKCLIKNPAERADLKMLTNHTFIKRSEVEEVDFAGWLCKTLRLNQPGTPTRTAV

`C=CC(=O)N1CCC([C@@H]2CCNc3c(C(N)=O)c(-c4ccc(Oc5ccccc5)cc4)nn32)CC1` [Compound A, reference compound]: the negative logarithm of the IC50 (pIC50) was 7.12 on MAP2K2 and 8.72 on TXK (100 μM ATP, SRCtide substrate, 3 hours, read-out: IC50, Enzyme TXK).
Consider `C=CC(=O)N1CCN([C@@H]2CCNc3c2nn(-c2ccc(Oc4ccccc4)cc2)c3C(N)=O)CC1` [Example 6, (7R)-2-(4-phenoxyphenyl)-7-[4-(prop-2-enoyl)piperazin-1-yl]-4,5,6,7-tetrahydro-2H-pyrazolo[4,3-b]pyridine-3-carboxamide], for which the pIC50 at MAP2K2 is 5.11; at TXK, 6.65. In addition, the “major contributing enzyme in metabolism” value in data set [1] is given as “CYP3A4 was identified as the major contributing enzyme”.

As usually defined, the pIC50 is the negative decadic logarithm of the IC50, by convention in mol/L.

These data come from patent US20220213092A1, “BICYCLIC PYRAZOLE BRUTON'S TYROSINE KINASE INHIBITORS” (AbbVie Inc., priority 2020, published 2022).
